Assay results published in the Deep4Chem optical property database.
One block for each compound: values may come before it.

Assay: photoluminescence quantum yield (fraction); solvent given as SMILES

Structure (SMILES): N#CC1=c2c3cccc4cccc(c43)n2[B-](F)(F)[n+]2ccccc21
- photoluminescence quantum yield (in C1CCOC1): 0.86
- photoluminescence quantum yield (in CC#N): 0.96
- photoluminescence quantum yield (in CCCCCC): 0.75
- photoluminescence quantum yield (in Cc1ccccc1): 0.75
- photoluminescence quantum yield (in ClCCl): 0.88

- photoluminescence quantum yield (in ClCCl): 0.76
Structure (SMILES): CN(C)c1ccc(C#Cc2ccc3c(N(C)C)cc(-c4ccccc4)cc3c2)cc1

- photoluminescence quantum yield (in C1CCOC1): 0.16
Structure (SMILES): Cc1cc(C)c([B-]2(c3c(C)cc(C)cc3C)[O+]=P(c3ccccc3)(c3ccccc3)c3cc(-c4ccc(C(C)(C)C)cc4)sc3-c3sc(-c4ccc(C(C)(C)C)cc4)cc32)c(C)c1

- photoluminescence quantum yield (in ClCCl): 0.78
Structure (SMILES): Cc1cc(-c2ccc(-c3ccccc3)cc2)cc(C)[o+]1

- photoluminescence quantum yield (in CC#N): 0.113
Structure (SMILES): N#Cc1nn(-c2c(Cl)cccc2Cl)nc1N1CCCC1

Structure (SMILES): Cc1ccc(N(c2ccc(C)cc2)c2ccc(-c3ccc4c(c3)C(=O)c3ccccc3C4=O)cc2)cc1
- photoluminescence quantum yield (in C1CCOC1): 0
- photoluminescence quantum yield (in CCCCCC): 0.403
- photoluminescence quantum yield (in CCOC(C)=O): 0
- photoluminescence quantum yield (in CCOCC): 0.0041
- photoluminescence quantum yield (in Cc1ccccc1): 0.0801
- photoluminescence quantum yield (in ClC(Cl)(Cl)Cl): 0.246
- photoluminescence quantum yield (in ClCCl): 0

- photoluminescence quantum yield (in C1COCCO1): 0.009
- photoluminescence quantum yield (in CC#N): 0.027
- photoluminescence quantum yield (in CCO): 0.019
- photoluminescence quantum yield (in CS(C)=O): 0.089
- photoluminescence quantum yield (in O): 0.013
- photoluminescence quantum yield (in c1ccccc1): 0.008
Structure (SMILES): Cc1c(OCC(=O)O)cc2c3c([nH]c2c1C)C(=O)CCC3

- photoluminescence quantum yield (in ClCCl): 0.069
Structure (SMILES): Cc1c(C(=O)c2ccc3c4cccc5cccc(c6cccc2c63)c54)c2ccc3cccc4c5cccc6ccc1c(c65)c2c34

- photoluminescence quantum yield (in ClCCl): 0.42
Structure (SMILES): Cn1nc(-c2ccccc2)cc1-c1ccccc1

Structure (SMILES): N#CC(C#N)=Cc1nc2ccc(C#Cc3ccc(N(c4ccccc4)c4ccccc4)cc3)cc2s1
- photoluminescence quantum yield (in Cc1ccccc1): 0.07

- photoluminescence quantum yield (in ClCCl): 0.36
Structure (SMILES): Cc1cc(C)c(C2=C3C=C(/C=C/C(=O)OCc4ccccc4)C=[N+]3[B-](F)(F)n3cccc32)c(C)c1

- photoluminescence quantum yield (in ClC(Cl)Cl): 0.152
Structure (SMILES): F[B-]1(F)OC(c2ccc(Br)cc2)=Cc2c3ccccc3c3ccccc3[n+]21

- photoluminescence quantum yield (in C1CCOC1): 0.38
Structure (SMILES): c1ccc(-c2cnc3nn4ccccc4c3c2)cc1

- photoluminescence quantum yield (in ClC(Cl)Cl): 0.067
Structure (SMILES): CCCCCCCCCCCCOc1cc2c3c(ccc4c5c(N6CCOCC6)cc6c7c(ccc(c1c34)c75)C(=O)N(C1CCCCC1)C6=O)C(=O)N(C1CCCCC1)C2=O

- photoluminescence quantum yield (in ClCCl): 0.1
Structure (SMILES): CC(C)(C)OC(=O)/C=C/C1=CC2=C(c3ccccc3)c3cccn3[B-](F)(F)[N+]2=C1

Structure (SMILES): N#Cc1ccc2c(c1)C1(c3cc(C#N)ccc3-2)c2ccccc2N(c2ccccc2)c2ccccc21
- photoluminescence quantum yield (in Cc1ccccc1): 0.47

- photoluminescence quantum yield (in ClCCl): 0.37
Structure (SMILES): Clc1ccc(C2=C(c3ccc(Cl)cc3)c3cccc4c3c(cc3nc5ccccc5nc34)O2)cc1

- photoluminescence quantum yield (in ClC(Cl)Cl): 0.15
Structure (SMILES): O=c1oc2ccccc2cc1-c1cn2ccccc2n1

- photoluminescence quantum yield (in C1CCCCC1): 0.98
- photoluminescence quantum yield (in CCOC(C)=O): 0.11
Structure (SMILES): CC1=[N+]2C(=Cc3ccc(C)n3[B-]2(F)F)C=C1c1cc2n(c1)[B-](F)(F)[N+]1=CC=CC1=C2c1c(C)cc(C)cc1C

- photoluminescence quantum yield (in C1CCOC1): 0.68
- photoluminescence quantum yield (in C1COCCO1): 0.72
- photoluminescence quantum yield (in CC#N): 0.65
- photoluminescence quantum yield (in CC(C)O): 0.53
- photoluminescence quantum yield (in CCO): 0.44
- photoluminescence quantum yield (in CCOC(C)=O): 0.72
- photoluminescence quantum yield (in CN(C)C=O): 0.71
- photoluminescence quantum yield (in CO): 0.36
- photoluminescence quantum yield (in CS(C)=O): 0.75
- photoluminescence quantum yield (in O): 0.56
Structure (SMILES): NS(=O)(=O)c1ccc(N2N=C(c3ccc(O)cc3)CC2c2ccc(Cl)cc2)cc1 (stereo not given)

- photoluminescence quantum yield (in CC#N): 0.62
- photoluminescence quantum yield (in CCCCCC): 0.53
- photoluminescence quantum yield (in CCO): 0.44
Structure (SMILES): c1ccc2c(c1)[nH]c1ccccc12

Structure (SMILES): CC(C)(C)c1cc(C(C)(C)C)c(-c2nnc(-c3ccc(-n4c5ccccc5c5ccccc54)cc3)o2)c(C(C)(C)C)c1
- photoluminescence quantum yield (in Cc1ccccc1): 0.62

- photoluminescence quantum yield (in C1COCCO1): 0
Structure (SMILES): COC(=O)c1ccc(/C=C2\N=C(c3ccccc3)OC2=O)cc1

- photoluminescence quantum yield (in CCCCCC): 0.9
Structure (SMILES): Cc1cc(C)c(B(c2cc3c4c(c(B(c5c(C)cc(C)cc5C)c5c(C)cc(C)cc5C)cc5c4c2CCC5)CCC3)c2c(C)cc(C)cc2C)c(C)c1

- photoluminescence quantum yield (in ClC(Cl)Cl): 0.59
Structure (SMILES): CCCCCCCCOc1ccc(-c2c3c4n(c(-c5ccc(OCCCCCCCC)cc5)c3c3n2[B-](F)(F)[n+]2c(ccc5cc(C(C)(C)C)ccc52)C=3C#N)[B-](F)(F)[n+]2c(ccc3cc(C(C)(C)C)ccc32)C=4C#N)cc1

Structure (SMILES): COC(=O)C(Cc1ccc2oc(-c3ccc(-n4c5ccccc5c5ccccc54)cc3)nc2c1)NC(=O)OC(C)(C)C (stereo not given)
- photoluminescence quantum yield (in C1CCCCC1): 0.94
- photoluminescence quantum yield (in C1CCOC1): 0.53
- photoluminescence quantum yield (in C1COCCO1): 0.62
- photoluminescence quantum yield (in CC1CCCO1): 0.52
- photoluminescence quantum yield (in CC#N): 0.46
- photoluminescence quantum yield (in CC(C)(C)O): 0.81
- photoluminescence quantum yield (in CC(C)=O): 0.44
- photoluminescence quantum yield (in CC(C)CC(C)(C)C): 0.55
- photoluminescence quantum yield (in CC(C)O): 0.59
- photoluminescence quantum yield (in CC(O)CO): 0.55
- photoluminescence quantum yield (in CCCCCCCO): 0.65
- photoluminescence quantum yield (in CCCCCCO): 0.73
- photoluminescence quantum yield (in CCCCCO): 0.77
- photoluminescence quantum yield (in CCCCO): 0.69
- photoluminescence quantum yield (in CCO): 0.63
- photoluminescence quantum yield (in CCOC(C)=O): 0.54
- photoluminescence quantum yield (in CCOCC): 0.56
- photoluminescence quantum yield (in CN(C)C=O): 0.58
- photoluminescence quantum yield (in CO): 0.36
- photoluminescence quantum yield (in CS(C)=O): 0.47
- photoluminescence quantum yield (in Cc1ccccc1): 0.69
- photoluminescence quantum yield (in OCCO): 0.52

Structure (SMILES): CCCC1=Cc2nc1ccc1[nH]c(cc1CCC)c1nc(c(OC)cc3[nH]c2cc3CCC)C(CCC)=C1
- photoluminescence quantum yield (in Cc1ccccc1): 0.18

- photoluminescence quantum yield (in CC#N): 0.046
- photoluminescence quantum yield (in c1ccccc1): 0.073
Structure (SMILES): Cc1ccc(-c2cc(-c3ccccc3)c3c(N)nc(N4CCCC4)c(C#N)c3n2)cc1

- photoluminescence quantum yield (in ClCCl): 0.46
Structure (SMILES): CN(C)c1ccc(C2=CC3=C(c4ccc(C=O)cc4)[C@H]4c5ccccc5[C@]3(S2)c2ccccc24)cc1

Structure (SMILES): CC(C)(C)NC1=C2C=CC=[N+]2[B-](F)(F)n2cccc21
- photoluminescence quantum yield (in C1CCCCC1): 0.63
- photoluminescence quantum yield (in CC(C)=O): 0.002
- photoluminescence quantum yield (in CCO): 0.002
- photoluminescence quantum yield (in CCOC(C)=O): 0.012
- photoluminescence quantum yield (in CO): 0.001
- photoluminescence quantum yield (in OCC(F)(F)F): 0.006

- photoluminescence quantum yield (in ClCCl): 0.37
Structure (SMILES): CN(C)c1cccc(/C=C/c2ncc(-c3ccc(OCc4ccccc4)c(OCc4ccccc4)c3)o2)c1

Structure (SMILES): Cc1ccccc1
- photoluminescence quantum yield (in C1CCCCC1): 0.22

- photoluminescence quantum yield (in C1CCCCC1): 0.09
Structure (SMILES): Oc1ccccc1

- photoluminescence quantum yield (in C1CCOC1): 0.06
Structure (SMILES): CCCCCCCCCCCCOc1cc(C(=O)Nc2ccc(-c3ccc4c(c3)C(=O)c3cc(-c5ccc(NC(=O)c6cc(OCCCCCCCCCCCC)c(OCCCCCCCCCCCC)c(OCCCCCCCCCCCC)c6)cc5)ccc3-4)cc2)cc(OCCCCCCCCCCCC)c1OCCCCCCCCCCCC

- photoluminescence quantum yield (in c1ccccc1): 0.668
Structure (SMILES): COc1ccc2ccc3oc(=O)c(-c4ccccc4)nc3c2c1

- photoluminescence quantum yield (in CO): 0.0074
- photoluminescence quantum yield (in ClCCl): 0.24
Structure (SMILES): CCCCCCN(CCCCCC)c1ccc(C#Cc2ccc(C(F)(F)F)cc2)cc1

- photoluminescence quantum yield (in ClCCl): 0.32
Structure (SMILES): c1ccc2c(C3=C(c4cccc5ccccc45)c4cccc5c4c(cc4nc6ccccc6nc45)O3)cccc2c1

- photoluminescence quantum yield (in C1CCCCC1): 0.9
Structure (SMILES): CCC(C)(C)c1ccc2c(c1)C(CCOC)(CCOC)c1cc(-c3ccc(-c4ccc5c(c4)C(CCOC)(CCOC)c4cc(C(C)(C)CC)ccc4-5)cc3)ccc1-2

- photoluminescence quantum yield (in ClCCl): 0.17
Structure (SMILES): O=C(c1ccc2c3c(cccc13)-c1cccc3c1C2CC=C3)c1c(CCc2ccccc2)c2ccc3cccc4c5cccc6ccc1c(c65)c2c34 (stereo not given)

- photoluminescence quantum yield (in ClC(Cl)Cl): 0.5
Structure (SMILES): O=c1c2cc3ccc4cccc5ccc(c2c(=O)n1-c1ccccc1)c3c45

- photoluminescence quantum yield (in ClC(Cl)Cl): 0.5
Structure (SMILES): CCCN1c2ccccc2Sc2cc(/C=C\c3cc(=O)oc4ccccc34)ccc21

- photoluminescence quantum yield (in ClCCl): 0.9
Structure (SMILES): C1=Cc2ccc(N(c3ccccc3)c3ccccc3)cc2C2(c3cc(N(c4ccccc4)c4ccccc4)ccc31)c1ccccc1-c1ccccc12

- photoluminescence quantum yield (in CC#N): 0.048
Structure (SMILES): COc1ccc(-c2csc(/C(C#N)=C/c3ccc(Cl)cc3)n2)cc1

- photoluminescence quantum yield (in CCO): 0.14
Structure (SMILES): CNc1cc2nc3cc(Cl)c(Cl)cc3nc2cc1NC

- photoluminescence quantum yield (in C1COCCO1): 0.44
- photoluminescence quantum yield (in CC#N): 0.02
- photoluminescence quantum yield (in ClCCl): 0.24
Structure (SMILES): CCCCN(CCCC)c1ccc(/C=C/c2ccc3nc(/C=C/c4ccc(N(C)C)cc4)c(-c4ccccc4)nc3c2)cc1

- photoluminescence quantum yield (in ClCCl): 0.35
Structure (SMILES): Cc1cc(C)c(C2=C3C=C(/C=C/C(=O)OCc4ccccc4)C=[N+]3[B-](F)(F)n3cc(/C=C/C(=O)OCc4ccccc4)cc32)c(C)c1

- photoluminescence quantum yield (in CCO): 0.36
Structure (SMILES): CCN(CC)c1ccc(C=Cc2nc3nc4ccccc4nc3s2)cc1

- photoluminescence quantum yield (in CC#N): 0.49
- photoluminescence quantum yield (in CO): 0.32
- photoluminescence quantum yield (in ClCCl): 0.61
Structure (SMILES): O=C1c2ccccc2-c2c(-c3cc(Br)ccc3O)[nH]c(=O)n21

Structure (SMILES): COC(=O)/C(C#N)=c1\s/c(=c2/s/c(=C(/C#N)C(=O)OC)c3cc(-c4ccccc4)sc23)c2sc(-c3ccccc3)cc12
- photoluminescence quantum yield (in Cc1ccccc1): 0.366

- photoluminescence quantum yield (in CO): 0.2
Structure (SMILES): c1ccc(N(c2ccccc2)c2ccc(-c3ncc(-c4cnc(-c5ccc(N(c6ccccc6)c6ccccc6)cc5)s4)s3)cc2)cc1

Structure (SMILES): COc1ccc(C2=C(c3ccc(C)cc3)C(c3ccccc3)=[N+]3C2=Nc2c(-c4ccc(OC)cc4)c(-c4ccc(C)cc4)c(-c4ccccc4)n2[B-]3(F)F)cc1
- photoluminescence quantum yield (in Cc1ccccc1): 0.01

- photoluminescence quantum yield (in C1CCOC1): 0.0077
Structure (SMILES): C[P+](c1c2ccccc2cc2ccccc12)(c1c2ccccc2cc2ccccc12)c1c2ccccc2cc2ccccc12

- photoluminescence quantum yield (in ClCCl): 0.64
Structure (SMILES): COc1ccc(C#Cc2c3cc4ccccc4cc3c(C#Cc3ccc(OC)cc3)c3cc4sc(C)cc4cc23)cc1

- photoluminescence quantum yield (in CO): 0.52
- photoluminescence quantum yield (in O): 0.28
Structure (SMILES): CC[N+]1=C(/C=C/C=C/C=C/C=C2/N(CCCCCC(=O)O)c3ccc(S(=O)(=O)[O-])cc3C2(C)C)C(C)(C)c2cc(S(=O)(=O)[O-])ccc21

- photoluminescence quantum yield (in CC#N): 0.89
- photoluminescence quantum yield (in ClCCl): 0.99
Structure (SMILES): O=c1c2cc(Cl)ccc2nc2n1[B-](F)(F)[n+]1ccccc1-2

- photoluminescence quantum yield (in ClCCl): 0.13
Structure (SMILES): COc1ccc(C2=C3C=C(/C=C/C(=O)OC(C)(C)C)C=[N+]3[B-](F)(F)n3cccc32)cc1

- photoluminescence quantum yield (in C1CCCCC1): 0.37
- photoluminescence quantum yield (in CCOC(C)=O): 0.1
Structure (SMILES): CC1=[N+]2C(=C(c3ccc(N(c4ccccc4)c4ccccc4)cc3)c3ccc(C)n3[B-]2(F)F)C=C1c1cc2n(c1)[B-](F)(F)[N+]1=CC=CC1=C2c1c(C)cc(C)cc1C

- photoluminescence quantum yield (in ClCCl): 0.07
Structure (SMILES): CC1=NN(c2cccc3ccccc23)[B-](F)(F)[n+]2ccccc21
